Experimental data as given in ChEMBL document CHEMBL1132044, “Synthesis and in vitro and in vivo evaluation of the 2-(6'methoxy-3',4'-dihydro-1'-naphtyl)-4H-3,1-benzoxazin-4-one as a new potent substrate inhibitor of human leukocyte elastase” (Bioorg Med Chem Lett, 1999).

Molecular target: T1, Neutrophil elastase (Homo sapiens) (UniProt P08246)
T1 sequence (whole entry): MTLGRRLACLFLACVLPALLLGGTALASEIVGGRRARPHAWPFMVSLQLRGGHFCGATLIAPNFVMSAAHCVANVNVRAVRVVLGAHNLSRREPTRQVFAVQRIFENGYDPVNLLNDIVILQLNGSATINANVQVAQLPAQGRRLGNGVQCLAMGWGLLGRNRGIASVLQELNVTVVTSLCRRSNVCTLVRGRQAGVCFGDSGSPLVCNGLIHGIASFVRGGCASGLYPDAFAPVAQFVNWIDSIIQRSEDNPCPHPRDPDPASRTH
Test: In vitro inhibitory activity against human leukocyte elastase (HLE), at a concentration of 15 uM

Row | inhibition | SMILES
1 | 64.5% | O=c1oc(/C2=C/CCCCCC2)nc2ccccc12
2 | 65% | O=c1oc(-c2ccco2)nc2ccccc12

Second part, the compound before the results:

Row | SMILES | inhibition
3 | CCOC(=O)C1CCC(c2nc3ccccc3c(=O)o2)=CC1C (centres undefined) | 12%
4 | O=c1oc(-c2ccccc2)nc2ccccc12 | 45.7%
5 | COc1ccc2c(c1)CCC=C2c1nc2ccccc2c(=O)o1 | 92.8%

Molecular target: T1, Neutrophil elastase (Homo sapiens)
Test: In vitro inhibitory activity against human leukocyte elastase (HLE), at a concentration of 1.5 uM

Row | inhibition | SMILES
6 | 23% | O=c1oc(/C2=C/CCCCCC2)nc2ccccc12
7 | 22.6% | O=c1oc(-c2ccco2)nc2ccccc12

Continued, compound first:

Row | SMILES | inhibition
8 | CCOC(=O)C1CCC(c2nc3ccccc3c(=O)o2)=CC1C (centres undefined) | 6%
9 | O=c1oc(-c2ccccc2)nc2ccccc12 | 16.2%
10 | COc1ccc2c(c1)CCC=C2c1nc2ccccc2c(=O)o1 | 69.9%

Molecular target: T2, Neutrophil elastase (Homo sapiens, UniProt P08246)
T2 sequence (P08246 whole entry): T1 sequence (whole entry)
Test: In vitro inhibitory activity against human leukocyte elastase (HLE)

Row | IC50 | SMILES
11 | 7 µM | O=c1oc(/C2=C/CCCCCC2)nc2ccccc12
12 | 5.5 µM | O=c1oc(-c2ccco2)nc2ccccc12

Continued, compound first:

Row | SMILES | IC50
13 | O=c1oc(-c2ccccc2)nc2ccccc12 | 17 µM
14 | COc1ccc2c(c1)CCC=C2c1nc2ccccc2c(=O)o1 | 0.61 µM

Molecular target: T1, Neutrophil elastase (Homo sapiens)
Test: In vitro inhibitory activity against human leukocyte elastase (HLE), at a concentration of 75 uM

Row | inhibition | SMILES
15 | 87% | O=c1oc(/C2=C/CCCCCC2)nc2ccccc12
16 | 88.7% | O=c1oc(-c2ccco2)nc2ccccc12

The next lines start with the compound.

Row | SMILES | inhibition
17 | CCOC(=O)C1CCC(c2nc3ccccc3c(=O)o2)=CC1C (centres undefined) | 20.8%
18 | O=c1oc(-c2ccccc2)nc2ccccc12 | 76%
19 | COc1ccc2c(c1)CCC=C2c1nc2ccccc2c(=O)o1 | 99.6%
